According to patent US9884819B2, “Tetrahydrocarbazole inhibitors of SIRT1 receptors” (Auspex Pharmaceuticals, Inc., priority 2016, dated 2018):

Key:
[1] = In vitro human liver microsomal stability assay; format: in vitro ADME; details: for Percent Remaining (%) 0 min / Percent Remaining (%) 15 min / Percent Remaining (%) 30 min / Percent Remaining (%) 60 min / Percent Remaining (%) 120 min: human liver microsomes 2 mg/mL, 1 μM compound; for Percent Remaining (%) 0 min / Percent Remaining (%) 15 min / Percent Remaining (%) 30 min / Percent Remaining (%) 60 min / Percent Remaining (%) 120 min / Percent Remaining (%) 120 min w/o NADPH: mean; for Percent Remaining (%) 120 min w/o NADPH: 120 min without NADPH; for CLint scaled at 1 μM / half-life at 1 μM: pH 7.4
Method: Human liver microsomal stability assays are conducted at 2 mg per mL liver microsome protein with an NADPH-generating system consisting of NADP (1 mM, pH 7.4), […] (5 mM, pH 7.4), and glucose-6-phosphate dehydrogenase (1 unit/mL). Test compounds were prepared as solutions in DMSO and added to the assay mixture (1 μM, final concentration in incubation) and were incubated at 37±1° C. […] Samples were centrifuged (920×g for 10 min at 10° C.) in 96-well plates. Supernatant fractions were analyzed by LC-MS/MS to determine the percent remaining and estimate the degradation half-life of the test compounds.

CYP1A2 = target: T1, CYP1A2 (Homo sapiens, UniProt P05177); test: In vitro metabolism using human cytochrome P450 enzymes (CYP1A2); format: in vitro ADME; details: for Clint / half-life at 0.2 mM: Cyp 1A2; for Percent Remaining (%) 0 min: Cyp 1A2, 0 min; for Percent Remaining (%) 0 min / Percent Remaining (%) 15 min / Percent Remaining (%) 30 min / Percent Remaining (%) 45 min / Percent Remaining (%) 60 min: mean; for Percent Remaining (%) 15 min: Cyp 1A2, 15 min; for Percent Remaining (%) 30 min: Cyp 1A2, 30 min; for Percent Remaining (%) 45 min: Cyp 1A2, 45 min; for Percent Remaining (%) 60 min: Cyp 1A2, 60 min; for half-life at 0.2 mM: human, recombinant CYP1A2 (baculovirus expression system), pH 7.4
T1 construct: purchased BD Biosciences, San Jose, Calif
T1 sequence (P05177 1-516): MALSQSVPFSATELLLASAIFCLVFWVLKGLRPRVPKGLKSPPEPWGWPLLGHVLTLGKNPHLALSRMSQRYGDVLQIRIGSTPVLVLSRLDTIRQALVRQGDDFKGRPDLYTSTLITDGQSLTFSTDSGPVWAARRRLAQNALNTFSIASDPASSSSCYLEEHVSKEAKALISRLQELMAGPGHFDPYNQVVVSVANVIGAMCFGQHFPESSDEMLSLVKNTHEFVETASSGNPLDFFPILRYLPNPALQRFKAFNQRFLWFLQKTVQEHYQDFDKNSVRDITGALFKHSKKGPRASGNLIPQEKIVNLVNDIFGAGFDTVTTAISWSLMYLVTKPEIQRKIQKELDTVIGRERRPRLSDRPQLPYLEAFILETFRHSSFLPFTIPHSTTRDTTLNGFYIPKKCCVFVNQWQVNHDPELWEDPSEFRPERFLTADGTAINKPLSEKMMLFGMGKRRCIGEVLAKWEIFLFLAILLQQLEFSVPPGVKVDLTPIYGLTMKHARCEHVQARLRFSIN

[2] = cited from earlier work
R6/2 mouse = details: transgenic r6/2 mouse model; cited from earlier work
drosophila model of HD = details: cited from earlier work
CYP3A4 = CYP3A4 (Homo sapiens, UniProt P08684); test: In vitro metabolism using human cytochrome P450 enzymes (CYP3A4); details: for Clint: Cyp 3A4; for Percent Remaining (%) 0 min: Cyp 3A4, 0 min; for Percent Remaining (%) 0 min / Percent Remaining (%) 15 min / Percent Remaining (%) 30 min / Percent Remaining (%) 45 min / Percent Remaining (%) 60 min: mean; for Percent Remaining (%) 15 min: Cyp 3A4, 15 min; for Percent Remaining (%) 30 min: Cyp 3A4, 30 min; for Percent Remaining (%) 45 min: Cyp 3A4, 45 min; for Percent Remaining (%) 60 min: Cyp 3A4, 60 min; for half-life at 0.2 mM: human, pH 7.4
[3] = human liver microsomes, degradation half-life
[4] = human, single-dose phase, average
[5] = human, single-dose phase, range
[6] = recombinant CYP3A4 (baculovirus expression system)

Sequence of CYP3A4 (P08684 whole entry): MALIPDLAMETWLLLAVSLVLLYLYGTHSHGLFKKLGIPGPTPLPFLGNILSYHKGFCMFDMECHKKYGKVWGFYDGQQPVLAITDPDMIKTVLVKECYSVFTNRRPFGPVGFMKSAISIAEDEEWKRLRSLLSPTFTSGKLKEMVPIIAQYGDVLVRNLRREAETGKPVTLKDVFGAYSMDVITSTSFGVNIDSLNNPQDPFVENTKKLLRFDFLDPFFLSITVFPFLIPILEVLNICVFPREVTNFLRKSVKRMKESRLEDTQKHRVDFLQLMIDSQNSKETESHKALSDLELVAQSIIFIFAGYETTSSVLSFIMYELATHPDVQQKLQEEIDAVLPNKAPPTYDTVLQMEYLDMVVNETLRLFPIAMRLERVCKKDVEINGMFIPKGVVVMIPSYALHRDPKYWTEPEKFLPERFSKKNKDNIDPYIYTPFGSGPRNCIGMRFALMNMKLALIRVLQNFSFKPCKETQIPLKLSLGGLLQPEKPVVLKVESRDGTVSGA

Structure (SMILES)	Percent Remaining (%) 0 min [1]	Percent Remaining (%) 15 min [1]	Percent Remaining (%) 30 min [1]	Percent Remaining (%) 60 min [1]	Percent Remaining (%) 120 min [1]	Percent Remaining (%) 120 min w/o NADPH ([1]; human liver microsomes)	CLint scaled at 1 μM ([1]; human liver microsomes)	half-life at 1 μM [1, 3]	Clint (CYP1A2)	Percent Remaining (%) 0 min (CYP1A2)	Percent Remaining (%) 15 min (CYP1A2)	Percent Remaining (%) 30 min (CYP1A2)	Percent Remaining (%) 45 min (CYP1A2)	Percent Remaining (%) 60 min (CYP1A2)	Clint (CYP3A4)	Percent Remaining (%) 0 min (CYP3A4)	Percent Remaining (%) 15 min (CYP3A4)	Percent Remaining (%) 30 min (CYP3A4)	Percent Remaining (%) 45 min (CYP3A4)	Percent Remaining (%) 60 min (CYP3A4)	further results
NC(=O)C1CCCc2c1[nH]c1ccc(Cl)cc21 (stereo not shown) [Example 1, 6-chloro-2,3,4,9-tetrahydro-1H-carbazole-1-carboxamide]	100%	93.37%	90.46%	73.66%	52.94%	102.02%	13.6 mL/min/kg	128 min	0.0002 mL/min/pmol	100.00%	46.28%	24.21%	16.02%	11.55%	0.00013 mL/min/pmol	100.00%	63.43%	55.02%	54.21%	51.13%	half-life at 0.2 mM (CYP1A2): 16.9 min; Intersubject variability (% CV) in AUC(0,∞), average [2, 4]: 56%; Intersubject variability (% CV) in Cmax, average [2, 4]: 33%; Intersubject variability (% CV) in AUC(0,∞) [2, 5]: 35-71%; Intersubject variability (% CV) in Cmax [2, 5]: 23-46%; Safety and tolerability in human subjects ([2]; recent clinical trial (Westerberg et al.)): safe and well-tolerated; Effects on life span and psychomotor and histological endpoints (R6/2 mouse): statistically significant effects on life span; Neuroprotection (drosophila model of HD): neuroprotective; half-life at 0.2 mM (CYP3A4; [6]): 52.5 min
[2H]C1(C(N)=O)CCCc2c1[nH]c1ccc(Cl)cc21 (stereo not shown) [Example 2, 6-chloro-1-deutero-2,3,4,9-tetrahydro-1H-carbazole-1-carboxamide]	100%	100.12%	85.44%	71.84%	59.95%	100.36%	11.4 mL/min/kg	152 min	0.0002 mL/min/pmol	100.00%	48.53%	27.30%	17.05%	12.99%	0.00013 mL/min/pmol	100.00%	69.07%	59.14%	54.63%	53.05%	half-life at 0.2 mM (CYP1A2): 17.7 min; half-life at 0.2 mM (CYP3A4; [6]): 52.8 min
[2H]C1([2H])c2c([nH]c3ccc(Cl)cc23)C(C(N)=O)C([2H])([2H])C1([2H])[2H] (stereo not shown) [Example 3, 6-chloro-2,3,4,9-tetrahydro-1H-carbazole-2,2,3,3,4,4-d6-1-carboxamide]	100%	92.39%	86.96%	70.69%	52.83%	96.74%	13.5 mL/min/kg	128 min	0.00019 mL/min/pmol	100.00%	45.84%	26.01%	17.34%	12.82%	0.00010 mL/min/pmol	100.00%	69.80%	61.49%	63.89%	60.39%	half-life at 0.2 mM (CYP1A2): 17.9 min; half-life at 0.2 mM (CYP3A4; [6]): 70.7 min
O=C(c1ccc(F)cc1)C1CCN(CCn2c(=O)[nH]c3ccccc3c2=O)CC1 [Ketanserin]	100%	78.08%	64.73%	44.75%	26.52%	97.70%															Clint ([1]; human liver microsomes): 39.88 mL/min/kg; T1/2 [1, 3]: 43.58 min
Cc1ncc2n1-c1ccc(Cl)cc1C(c1ccccc1F)=NC2 [Midazolam]															>0.0014 mL/min/pmol	100.00%	BQL	BQL	BQL	BQL	half-life at 0.2 mM (CYP3A4; recombinant enzyme): < 5 min
CCOc1ccc(NC(C)=O)cc1 [Phenacetin]									0.00018 mL/min/pmol	100.00%	53.02%	31.01%	20.20%	15.08%							
